Measurements as given in ChEMBL document CHEMBL4265998, “NLRP3 Modulators for the Treatment of Autoinflammatory Disorders” (ACS Med Chem Lett, 2018).

Tests used:
Toll-like receptor 7 = molecular target: T1, Toll-like receptor 7 (Homo sapiens, UniProt Q9NYK1); test: Agonist activity at TLR7 (unknown origin) expressed in HEK-Blue cells; type: cell-based
T1 sequence (Q9NYK1 whole entry): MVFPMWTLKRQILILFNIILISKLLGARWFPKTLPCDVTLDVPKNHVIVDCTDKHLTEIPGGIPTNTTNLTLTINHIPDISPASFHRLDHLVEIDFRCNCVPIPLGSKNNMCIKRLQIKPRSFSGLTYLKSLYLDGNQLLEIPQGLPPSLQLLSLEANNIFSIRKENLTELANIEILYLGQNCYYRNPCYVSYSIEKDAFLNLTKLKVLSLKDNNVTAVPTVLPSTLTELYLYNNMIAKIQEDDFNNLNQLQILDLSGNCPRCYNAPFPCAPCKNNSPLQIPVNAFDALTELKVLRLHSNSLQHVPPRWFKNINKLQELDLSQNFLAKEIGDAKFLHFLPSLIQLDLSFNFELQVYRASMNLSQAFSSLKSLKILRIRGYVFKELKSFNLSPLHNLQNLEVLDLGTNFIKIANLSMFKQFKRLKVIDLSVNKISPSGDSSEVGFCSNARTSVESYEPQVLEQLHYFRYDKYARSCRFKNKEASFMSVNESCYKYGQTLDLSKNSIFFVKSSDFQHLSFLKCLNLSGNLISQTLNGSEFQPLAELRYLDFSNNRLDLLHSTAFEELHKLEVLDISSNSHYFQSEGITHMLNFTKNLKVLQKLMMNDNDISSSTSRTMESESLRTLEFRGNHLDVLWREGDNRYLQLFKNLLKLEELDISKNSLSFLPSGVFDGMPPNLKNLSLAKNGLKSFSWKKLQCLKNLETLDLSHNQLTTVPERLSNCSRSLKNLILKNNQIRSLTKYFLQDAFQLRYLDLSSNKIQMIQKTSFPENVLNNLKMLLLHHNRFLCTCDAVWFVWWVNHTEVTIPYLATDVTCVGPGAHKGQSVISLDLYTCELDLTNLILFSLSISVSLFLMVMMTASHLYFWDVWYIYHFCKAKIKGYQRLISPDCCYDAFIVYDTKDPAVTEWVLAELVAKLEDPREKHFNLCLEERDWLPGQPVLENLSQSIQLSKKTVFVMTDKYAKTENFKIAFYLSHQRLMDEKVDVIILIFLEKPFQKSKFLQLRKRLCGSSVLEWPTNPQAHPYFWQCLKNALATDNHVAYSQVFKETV

Toll-like receptor 8 = molecular target: T2, Toll-like receptor 8 (Homo sapiens, UniProt Q9NR97); test: Agonist activity at TLR8 (unknown origin) expressed in HEK-Blue cells; type: cell-based
T2 sequence (Q9NR97 whole entry): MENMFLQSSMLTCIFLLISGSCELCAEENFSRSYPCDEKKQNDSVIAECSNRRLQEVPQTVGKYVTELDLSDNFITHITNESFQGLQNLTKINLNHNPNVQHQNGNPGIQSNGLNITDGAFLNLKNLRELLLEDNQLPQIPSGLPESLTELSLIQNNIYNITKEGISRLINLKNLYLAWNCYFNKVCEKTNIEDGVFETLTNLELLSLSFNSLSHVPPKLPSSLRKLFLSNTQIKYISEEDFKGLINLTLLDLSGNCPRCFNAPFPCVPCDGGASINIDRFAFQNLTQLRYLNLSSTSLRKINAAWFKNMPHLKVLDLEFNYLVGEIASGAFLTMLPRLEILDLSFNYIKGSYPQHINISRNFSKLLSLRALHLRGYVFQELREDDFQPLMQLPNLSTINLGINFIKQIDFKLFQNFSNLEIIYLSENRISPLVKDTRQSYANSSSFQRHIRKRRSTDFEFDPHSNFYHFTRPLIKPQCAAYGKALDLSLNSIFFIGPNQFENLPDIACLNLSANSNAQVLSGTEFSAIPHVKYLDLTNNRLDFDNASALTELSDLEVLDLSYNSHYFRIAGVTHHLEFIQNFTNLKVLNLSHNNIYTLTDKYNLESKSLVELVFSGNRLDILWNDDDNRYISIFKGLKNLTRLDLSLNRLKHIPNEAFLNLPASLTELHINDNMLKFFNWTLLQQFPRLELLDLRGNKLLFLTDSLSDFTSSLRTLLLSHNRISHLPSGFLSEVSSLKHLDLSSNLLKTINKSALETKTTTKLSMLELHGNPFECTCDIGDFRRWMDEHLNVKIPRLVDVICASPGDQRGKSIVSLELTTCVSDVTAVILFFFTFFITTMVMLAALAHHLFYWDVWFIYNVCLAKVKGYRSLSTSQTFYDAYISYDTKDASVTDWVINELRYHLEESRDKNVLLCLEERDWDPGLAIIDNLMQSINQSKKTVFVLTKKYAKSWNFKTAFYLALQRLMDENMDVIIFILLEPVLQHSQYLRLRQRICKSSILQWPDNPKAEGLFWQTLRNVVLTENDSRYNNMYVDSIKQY

`CCC(=O)N(CC)Cc1nc2c(N)nc3cc(-c4ccn[nH]4)ccc3c2n1CC` gave an EC50 (Toll-like receptor 7) greater than 100 µM and an EC50 (Toll-like receptor 8) greater than 100 µM.

`Nc1nc2cc(-c3cccs3)ccc2c2[nH]c(CN3CCCC3=O)nc12` showed an EC50 (Toll-like receptor 7) greater than 100 µM and an EC50 (Toll-like receptor 8) greater than 100 µM.

Compound `CCN(Cc1nc2c(N)nc3cc(-c4ccccc4)ccc3c2[nH]1)C(C)=O` has an EC50 (Toll-like receptor 7) greater than 100 µM and an EC50 (Toll-like receptor 8) greater than 100 µM.

`Cc1ccc(-c2ccc3c(c2)nc(N)c2nc(CN4CCCC4=O)[nH]c23)cc1` was tested, and the EC50 (Toll-like receptor 7) was greater than 100 µM and the EC50 (Toll-like receptor 8) was greater than 100 µM.

`CCN(Cc1nc2c(N)nc3cc(-c4cc[nH]n4)ccc3c2n1C)C(=O)OC(C)(C)C` showed an EC50 (Toll-like receptor 7) greater than 100 µM and an EC50 (Toll-like receptor 8) greater than 100 µM.

`Nc1nc2cc(-c3ccccc3F)ccc2c2[nH]c(CN3CCCC3=O)nc12` gave an EC50 (Toll-like receptor 7) greater than 100 µM and an EC50 (Toll-like receptor 8) greater than 100 µM.

For `CCn1c(CN2CCCC2=O)nc2c(N)nc3cc(-c4cccs4)ccc3c21`, the EC50 (Toll-like receptor 7) was greater than 100 µM and the EC50 (Toll-like receptor 8) was greater than 100 µM.

In the case of `CCN(C)Cc1nc2c(N)nc3cc(-c4cc[nH]n4)ccc3c2[nH]1`, the EC50 (Toll-like receptor 7) is reported as greater than 100 µM and the EC50 (Toll-like receptor 8) is reported as greater than 100 µM.

Work on `CCN(Cc1nc2c(N)nc3cc(C4=CCCC4)ccc3c2[nH]1)C(C)=O` yielded an EC50 (Toll-like receptor 7) greater than 100 µM and an EC50 (Toll-like receptor 8) greater than 100 µM.

With `Nc1nc2cc(-n3cccn3)ccc2c2[nH]c(CN3C[C@H](c4ccccc4)CC3=O)nc12` the EC50 (Toll-like receptor 7) was greater than 100 µM and the EC50 (Toll-like receptor 8) was greater than 100 µM.

Compound `Cc1cccc(-c2ccc3c(c2)nc(N)c2nc(CN4CCCC4=O)[nH]c23)c1` has an EC50 (Toll-like receptor 7) greater than 100 µM and an EC50 (Toll-like receptor 8) greater than 100 µM.

`Nc1nc2cc(-c3ccccc3)ccc2c2[nH]c(CN3CCCC3=O)nc12` gave an EC50 (Toll-like receptor 7) greater than 100 µM and an EC50 (Toll-like receptor 8) greater than 100 µM.
